Assay results: ChEMBL document CHEMBL1150933, “Cytotoxic sterols from the soft coral Nephthea erecta” (1998)
Values after ≈ are worked out from the molar mass of the structure shown.

How the values were obtained:
Type in all cases: functional
[1] = system: HT-29; experiment: Cytotoxicity against human HT-29 cells after 6 days by MTT assay; conditions: HT-29, 144 h, read-out: ED50 (the source's name)
[2] = system: KB; experiment: Cytotoxicity against human KB cells after 3 days by MTT assay; conditions: 72 h, read-out: ED50 (the source's name)
[3] = system: A549; experiment: Cytotoxicity against human A549 cells after 6 days by MTT assay; conditions: A549, 144 h, read-out: ED50 (the source's name)
[4] = system: P388; experiment: Cytotoxicity against mouse P388 cells after 3 days by MTT assay; conditions: P388, 72 h, read-out: ED50 (the source's name)

Compound | EC50 [1] [µg/mL] | EC50 [2] [µg/mL] | EC50 [3] [µg/mL] | EC50 [4] [µg/mL]
C=C(CC[C@@H](C)[C@H]1CC[C@H]2[C@@H]3C[C@@H](O)[C@@]4(O)C[C@@H](O)CC[C@]4(CO)[C@H]3CC[C@]12C)C(C)C | 0.93 (≈ 2.07 µM) | 0.39 (≈ 0.869 µM) | 0.81 (≈ 1.81 µM) | 0.34 (≈ 0.758 µM)
C=C(CC[C@@H](C)[C@H]1C[C@@H](O)[C@H]2[C@@H]3CC=C4C[C@@H](O)CC[C@]4(CO)[C@H]3CC[C@@]21C)C(C)C | 0.17 (≈ 0.395 µM) | 0.6 (≈ 1.39 µM) | 0.41 (≈ 0.952 µM) | 0.07 (≈ 0.163 µM)
C=C(CC[C@@H](C)[C@H]1CC[C@H]2[C@@H]3C(=O)C=C4C[C@@H](O)CC[C@]4(CO)[C@H]3CC[C@]12C)C(C)C | 3.34 (≈ 7.79 µM) | > 50 | 4.09 (≈ 9.54 µM) | 0.4 (≈ 0.933 µM)
C=C(CC[C@@H](C)[C@H]1CC[C@H]2[C@@H]3CC=C4C[C@@H](O)CC[C@]4(CO)[C@H]3CC[C@]12C)C(C)C | 1.31 (≈ 3.16 µM) | 1.1 (≈ 2.65 µM) | 1.76 (≈ 4.24 µM) | 0.45 (≈ 1.09 µM)
C=C(CC[C@@H](C)[C@H]1CC[C@H]2[C@@H]3[C@@H](OC(C)=O)C=C4C[C@@H](O)CC[C@]4(CO)[C@H]3CC[C@]12C)C(C)C | 0.87 (≈ 1.84 µM) | 0.38 (≈ 0.804 µM) | 0.81 (≈ 1.71 µM) | 0.42 (≈ 0.888 µM)
C=C(CC[C@@H](C)[C@H]1CC[C@H]2[C@@H]3[C@@H](O)C=C4C[C@@H](O)CC[C@]4(CO)[C@H]3CC[C@]12C)C(C)C | 0.72 (≈ 1.67 µM) | 0.58 (≈ 1.35 µM) | 0.69 (≈ 1.6 µM) | 0.24 (≈ 0.557 µM)
